One experiment deals with TNF-α mRNA. The experiment is described as follows: Expression of TNF-α genes in LPS-stimulated BV-2 cells (RT-PCR). Format: cell-based, mouse. As to the method: RT-PCR for GTPCH, iNOS, TNF-α, IL-1β and COX-2
5 ? each of total RNA samples isolated from BV-2 cells were subjected to reverse-transcription (RT), and then polymerase chain reaction (PCR) for 30 cycles under the conditions of 94° C. for 30 seconds, 60° C. for 40 seconds and 72° C. for one minute. Primers used in the PCR were as follows: iNOS (forward, ATGTCCGAAG-CAAACATCAC; reverse, TAATGTC CAGGAAGTAGGTG), TNF-α (forward, CA-[…] reverse, CAGAGCAATGACTC-CAAAGTAGACCT), IL-1β (forward, […]; reverse, CAGGACAGGTAT AGATTCTTTCCTTT), COX-2 (forward, […]; reverse, […]), GTPCH (forward, GGATACCAGGAGACCAT CTCA; reverse, TAGCATGGTGC-TAGTGACAGT). RT-PCR for B2M was simultaneously performed as internal control. The PCR products were subjected to electrophoresis in a 1.5% agarose gel, thereby confirming the presence of a desired size of single band.
The assay was performed to determine whether EHMTIQ (11a) affects TNF-α production in an activated microglial cell. LPS-stimulated BV-2 cell samples were treated with various concentrations of EHMTIQ (11a) and the expression of TNF-α genes was estimated by RT-PCR. The results are illustrated in FIG. 3.

Experiment [1] relates to mouse model of Parkinson's disease induced by MPTP. The experiment is described as follows: Mouse model of Parkinson's disease induced by MPTP (immunostaining of substantia nigra and striatum). Format: in vivo.

Consider `CCC(=O)N1CCc2cc(OC)c(O)cc2C1` [EHMTIQ (11a), 2-ethylcarbonyl-7-hydroxy-6-methoxy-1,2,3,4-tetrahydroisoquinoline], for which the “mRNA level of TNF-α” value with TNF-α mRNA (2.5 (unit as image)) is on record as “decreased the mRNA level to a statistically significant level”. The “mRNA level of TNF-α compared to the control only treated with LPS” value in the experiment with TNF-α mRNA (5 (unit as image)) was 74±1%; in the experiment with TNF-α mRNA (100 (unit as image)) it was 36±1%. For the same compound, the “activation of microglial cells in the substantia nigra (Iba-1 immunostaining)” value in experiment [1] (MPTP mouse (FIG. 13)) is on record as “inhibitory effect”. Moreover, the “dopaminergic neurons in the substantia nigra (TH immunostaining)” value in experiment [1] (MPTP mouse (FIG. 14)) is reported as “protective effect”. Also, the “degeneration of dopaminergic neurons in the substantia nigra (fluoroJade C and TH double labelling)” value in experiment [1] (MPTP mouse (FIG. 14, right panels)) is reported as “inhibitory effect”. Moreover, in experiment [1] (MPTP mouse (FIG. 15)), the “dopamine nerve terminals in the striatum (TH immunostaining)” value is “protective effect”.

(Values after patent US20100217003A1, “1,2,3,4-TETRAHYDROISOQUINOLINE DERIVATIVES HAVING EFFECTS OF PREVENTING AND TREATING DEGENERATIVE AND INFLAMMATORY DISEASES” (priority 2006, published 2010).)
